Results on 29 sequences are retold here after paper PMC12006171, “Marsupial cathelicidins: characterization, antimicrobial activity and evolution in this unique mammalian lineage” (Frontiers in Immunology, 2025).

Like-named read-outs stand apart in the source and are kept apart here.

Assay [1] has as its system six bacteria (S. aureus, E. coli, P. aeruginosa; ATCC and clinical isolate). The assay is classed as cell-based. To be noted: synthesized mature peptide. How it is done: Antimicrobial testing of 78 cathelicidin MPs was performed in two phases as outlined in Figure 1 . In phase I, 40 peptides (27 extant and 13 ancestral) were selected for testing based on rank (outlined above) and similarity to published marsupial cathelicidins with known antimicrobial activity ([33], [41]–[43]). These peptides were tested against nine bacteria (Staphylococcus aureus ATCC 29213 and clinical isolate, Escherichia coli ATCC 25922 and clinical isolate, Pseudomonas aeruginosa ATCC 27853 and clinical isolate, Streptococcus agalactiae ATCC 12386 and clinical isolate, Streptococcus pneumoniae ATCC 49619) and three fungi (Candida krusei ATCC 6258, Candida parapsilosis ATCC 22019, and Candida albicans clinical isolate). Details regarding these strains are available in Supplementary Table 4 . The antimicrobial activity of cathelicidins was determined as the minimum inhibitory concentration (MIC), which was the lowest concentration of cathelicidin that prevented visible bacterial or fungal growth, relative to the negative control. […] Minimum bactericidal concentration (MBC) and/or minimum fungicidal concentration (MFC) was conducted to determine microbicidal versus static action. Activity against S. aureus ATCC, E. coli ATCC, and Pseudomonas aeruginosa ATCC 27853 was examined in the presence of divalent cations to determine the impact of inhibitors.
In phase II, the remaining 38 peptides (37 extant and one ancestral) were tested against six bacteria (S. aureus ATCC and clinical isolate, E. coli ATCC and clinical isolate, and P. aeruginosa ATCC and clinical isolate). […] No further testing on phase II peptides was performed. Detailed methods for all assays are provided in subsequent sections.
Antimicrobial activity was determined using a broth microdilution susceptibility assay in 96 well polypropylene plates according to Clinical Laboratory Standards Institute guidelines M07-A and M26A as described previously ([33], [42], [43]). The bacterial and fungal isolates from humans and animals used in this study are outlined in Supplementary Table 4 . Only yeasts were included in the panel of fungi as they have been used in the susceptibility testing of eutherian ([3], [81]–[83]) and other marsupial cathelicidins previously ([33], [42], [43]). Cathelicidin mature peptides were solubilized in DMSO and serially diluted in duplicate from 128-0.25μg/mL in a final volume of 100µL. For bacteria, cathelicidins were diluted in Mueller Hinton Broth (MHB) with or without 10% lysed horse blood, and with (MH II B) or without (MHB) calcium and magnesium cations. For fungi, cathelicidins were diluted in Roswell Park Memorial Institute medium (RPMI)-1640 MOPS. Ampicillin or tetracycline were included as a positive control for Gram-positive and -negative bacteria respectively, while amphotericin B was used for fungi. A media-only negative control and growth control (no cathelicidin) were also included on each plate. Bacteria were sub-cultured on Muller Hinton agar (MHA) or sheep blood agar (BA), and fungi on Sabouraud dextrose agar (SAB), 20–24 hours prior to the test. Colonies were suspended in saline, the concentration adjusted to a 0.5 McFarland standard, and then diluted in media to a concentration of 1.0 x 10^6 cells/mL. Then, 100μL was added to each well of the cathelicidin dilution plate, giving a final inoculum density of 5 x 10^5 CFU/mL and cathelicidin concentration of 64-0.125μg/mL. Colony counts were performed on MHA/BA/SAB to confirm inoculum density. All plates were incubated at 35°C for 20–24 hours, depending on the strain.
Colonies were counted and compared to the colony count of the starting inoculum.

Assay [2] shares this test system. Also noted: method as in 4 sources, ref Peel et al 2016 ||| ref Peel et al 2021 ||| ref Wang et al 2011 ||| ref Peel et al 2017. The settings on record: cited from earlier work.
Assay [3] has as its system three fungi (Candida krusei, Candida parapsilosis, Candida albicans). Further details: method as in 4 sources, ref Peel et al 2016 ||| ref Peel et al 2021 ||| ref Wang et al 2011 ||| ref Peel et al 2017. To be noted: cited from earlier work.
The mark [4] stands for this setting: broth microdilution screening, phase I or II, Y/N summary over the bacteria tested.
[5] abbreviates: mature peptide, Y/N summary from earlier study, ref Peel et al 2017.
Setting [6] is: mature peptide (MP), Y/N summary, ref Peel et al 2017.
[7] abbreviates: mature peptide, Y/N summary from earlier study, ref Peel et al 2016.
[8] abbreviates: mature peptide, Y/N summary from earlier study, ref Peel et al 2021.

FRKLRNIFSRGRDDKE [MagiCath4]: the “Antibacterial (MIC <64ug/mL)” value in assay [1] (setting [4]) is “N (Antibacterial (MIC <64ug/mL))”. On the same count and under the same terms, the entry for “PRRKKGPKKDNYKPGGYSLIALGKPDIQKAPYMEAL [MaruCath7]” is “N (Antibacterial (MIC <64ug/mL))”; for “TPELFRSRRSPLPGRKKGSKRPKPGSYSVIALGKPGLKKAPYMEAL [LahiCath1]” it is “N (Antibacterial (MIC <64ug/mL))”.

For the sequence GEKVKTRFIAAIEKLIDTFLP [MaeuCath3], the “Antibacterial (MIC <64ug/mL)” value in assay [2] (setting [5]) is given as “N (Peel et al 2017) (Antibacterial (MIC <64ug/mL))”. For the same sequence, the “Antifungal (MIC <64ug/mL)” value in assay [3] (setting [5]) is “N (Peel et al 2017) (Antifungal (MIC <64ug/mL))”. In the case of SVPGTRAQSGTTSPGSGSRRVARSRG [OranCath6], the “Antibacterial (MIC <64ug/mL)” value in assay [2] (setting [6]) is “N (Peel et al 2017) (Antibacterial (MIC <64ug/mL))”. Further, the “Antifungal (MIC <64ug/mL)” value in assay [3] (setting [6]) is “N (Peel et al 2017) (Antifungal (MIC <64ug/mL))”. For “PIRTKRRWKLIKKGGKIVKDLLTKNNIIILPGGNE [TaacCath1]”, the “Antibacterial (MIC <64ug/mL)” value in assay [2] (setting [6]) is recorded as “Y (Peel et al 2017) (Antibacterial (MIC <64ug/mL))”. Besides, in assay [3] (setting [6]), the “Antifungal (MIC <64ug/mL)” value is given as “N (Peel et al 2017) (Antifungal (MIC <64ug/mL))”. On to “KEKATKFRNSIRRRVNGLKIGAADRVPGHYLA [MagiCath5]”, for which the “Antibacterial (MIC <64ug/mL)” value in assay [1] (setting [4]) is on record as “N (Antibacterial (MIC <64ug/mL))”. For “LKKIFGSIVKKAVSKGVAEGLKAVDEARKAEKKGKK [ModoCath1]”, in assay [2] (setting [6]), the “Antibacterial (MIC <64ug/mL)” value is recorded as “N (Peel et al 2017) (Antibacterial (MIC <64ug/mL))”. Also, the “Antifungal (MIC <64ug/mL)” value in assay [3] (setting [6]) is on record as “N (Peel et al 2017) (Antifungal (MIC <64ug/mL))”. For the sequence “KREDFLDQIIRDFRNFIYQKYRRLRDEFRKLRDILSG [SahaCath4]”, in assay [2] (setting [7]), the “Antibacterial (MIC <64ug/mL)” value is given as “N (Peel et al 2016) (Antibacterial (MIC <64ug/mL))”. The “Antifungal (MIC <64ug/mL)” value in assay [3] (setting [7]) is reported as “N (Peel et al 2016) (Antifungal (MIC <64ug/mL))”. As to “ASSGIIDTSSLPPKIRQIYNQAVYDTLVGILRNF [PhciCath6]”, the “Antibacterial (MIC <64ug/mL)” value in assay [2] (setting [8]) is recorded as “N (Peel et al 2021) (Antibacterial (MIC <64ug/mL))”. In addition, the “Antifungal (MIC <64ug/mL)” value in assay [3] (setting [8]) is recorded as “N (Peel et al 2021) (Antifungal (MIC <64ug/mL))”. For “KRGLWESLKRKVTKLGDDIRNTLRNFKIKFPVPRQG [MaeuCath7]”, the “Antibacterial (MIC <64ug/mL)” value in assay [2] (setting [5]) is listed as “Y (Peel et al 2017) (Antibacterial (MIC <64ug/mL))”. Moreover, in assay [3] (setting [5]), the “Antifungal (MIC <64ug/mL)” value is reported as “N (Peel et al 2017) (Antifungal (MIC <64ug/mL))”.

In the case of “IKIFIPKGFYKGIQLVNEIIKENNERQKQKP [ModoCath12]”, the “Antibacterial (MIC <64ug/mL)” value in assay [2] (setting [6]) was “N (Peel et al 2017) (Antibacterial (MIC <64ug/mL))”. The “Antifungal (MIC <64ug/mL)” value in assay [3] (setting [6]) is “N (Peel et al 2017) (Antifungal (MIC <64ug/mL))”.

As to SKTKRRSLLKRLGDGIRGFWNGFRGRK [ModoCath4], the “Antibacterial (MIC <64ug/mL)” value in assay [2] (setting [6]) is “Y (Peel et al 2017) (Antibacterial (MIC <64ug/mL))”. Also, in assay [3] (setting [6]), the “Antifungal (MIC <64ug/mL)” value was “Y (Peel et al 2017) (Antifungal (MIC <64ug/mL))”.

With “VSESISHGIPKAISAVNKLIKKKKKGATTPRVK [ModoCath6]”, in assay [2] (setting [6]), the “Antibacterial (MIC <64ug/mL)” value was “N (Peel et al 2017) (Antibacterial (MIC <64ug/mL))”. Besides, the “Antifungal (MIC <64ug/mL)” value in assay [3] (setting [6]) is “N (Peel et al 2017) (Antifungal (MIC <64ug/mL))”. For the sequence “PGRKKGSKRHKPGSYSVIALGKPGVKKSPYMEAL [MaeuCath8]”, the “Antibacterial (MIC <64ug/mL)” value in assay [2] (setting [5]) was “N (Peel et al 2017) (Antibacterial (MIC <64ug/mL))”. Besides, the “Antifungal (MIC <64ug/mL)” value in assay [3] (setting [5]) is given as “N (Peel et al 2017) (Antifungal (MIC <64ug/mL))”. With “LKKFFSSMIKKAVSKGISKGISKGIQEVDKAIKQKK [ModoCath2]”, the “Antibacterial (MIC <64ug/mL)” value in assay [2] (setting [6]) is listed as “N (Peel et al 2017) (Antibacterial (MIC <64ug/mL))”. Moreover, the “Antifungal (MIC <64ug/mL)” value in assay [3] (setting [6]) was “N (Peel et al 2017) (Antifungal (MIC <64ug/mL))”. “NFIHQKYRILLDKYRKLQDIFSGSGDKV [PhciCath2]”: the “Antibacterial (MIC <64ug/mL)” value in assay [2] (setting [8]) is given as “N (Peel et al 2021) (Antibacterial (MIC <64ug/mL))”. Moreover, the “Antifungal (MIC <64ug/mL)” value in assay [3] (setting [8]) was “N (Peel et al 2021) (Antifungal (MIC <64ug/mL))”. Regarding “LFPRRRKGSNKPGKYSVLFAAKPSVGKTPHILTI [PhciCath1]”, the “Antibacterial (MIC <64ug/mL)” value in assay [2] (setting [8]) is reported as “N (Peel et al 2021) (Antibacterial (MIC <64ug/mL))”. The “Antifungal (MIC <64ug/mL)” value in assay [3] (setting [8]) was “N (Peel et al 2021) (Antifungal (MIC <64ug/mL))”. Turning to “PGRKKGSKRHKPGSYSVIALGKPGVKKAPYMEAL [MagiCath2]”, in assay [1] (setting [4]), the “Antibacterial (MIC <64ug/mL)” value is “N (Antibacterial (MIC <64ug/mL))”. Take “PPEPLRFKRIRCLNGRKCNYHNLLLTIVPHWRIPKGK [PhciCath3]”: the “Antibacterial (MIC <64ug/mL)” value in assay [2] (setting [8]) is given as “N (Peel et al 2021) (Antibacterial (MIC <64ug/mL))”. The “Antifungal (MIC <64ug/mL)” value in assay [3] (setting [8]) is “N (Peel et al 2021) (Antifungal (MIC <64ug/mL))”. Turning to “KKFLKSVIKEAISKGIPKGIQAVNKLIKEKKEGQKHKP [MAP2, marsupial ancestral peptide, predicted by ANCESCON and GASP, synthesized]”, the “Antibacterial (MIC <64ug/mL)” value in assay [1] (antimicrobial screening Phase II, Y/N summary over bacteria tested, broth microdilution) was “N (Antibacterial (MIC <64ug/mL))”. In the case of GEKVKTRFIAAIKKLIDTFLP [MaruCath8], in assay [1] (setting [4]), the “Antibacterial (MIC <64ug/mL)” value is recorded as “N (Antibacterial (MIC <64ug/mL))”. The same measure, in the same setting: the result for “KVKRGLWDTVKRKVTNLRNSIRNRATNFKLGG [MagiCath1]” reads “N (Antibacterial (MIC <64ug/mL))”; that for “KRGFGDSVKKTGTKLKNSIRRRVTGLTVGAAVLRPG [MaruCath1p]”, “N (Antibacterial (MIC <64ug/mL))”; that for GSTSSPTVRF [LahiCath2], “N (Antibacterial (MIC <64ug/mL))”. On to “STILEDPGKIRERRDIGEEPIQKKQKMYRDQMQ [SahaCath7]”, for which the “Antibacterial (MIC <64ug/mL)” value in assay [2] (setting [8]) was “N (Peel et al 2021) (Antibacterial (MIC <64ug/mL))”. The “Antifungal (MIC <64ug/mL)” value in assay [3] (setting [8]) is “N (Peel et al 2021) (Antifungal (MIC <64ug/mL))”.

As to “TLTQAHCPYFLRKKPEGEMATGGRPQETPKLLGAL [ModoCath10]”, the “Antibacterial (MIC <64ug/mL)” value in assay [2] (setting [6]) is “N (Peel et al 2017) (Antibacterial (MIC <64ug/mL))”. For the same sequence, in assay [3] (setting [6]), the “Antifungal (MIC <64ug/mL)” value is recorded as “N (Peel et al 2017) (Antifungal (MIC <64ug/mL))”. “TFKRKNGSRKNGHRPGGYSLIALGNKKVLKAPYMESI [SahaCath2]”: in assay [2] (setting [7]), the “Antibacterial (MIC <64ug/mL)” value is “N (Peel et al 2016) (Antibacterial (MIC <64ug/mL))”. Further, the “Antifungal (MIC <64ug/mL)” value in assay [3] (setting [7]) is “N (Peel et al 2016) (Antifungal (MIC <64ug/mL))”.

For the sequence “APVTPAPPGFTTSSKKKGKKKLPYTVIFGRTDFP [ModoCath3]”, the “Antibacterial (MIC <64ug/mL)” value in assay [2] (setting [6]) is reported as “N (Peel et al 2017) (Antibacterial (MIC <64ug/mL))”. For the same sequence, in assay [3] (setting [6]), the “Antifungal (MIC <64ug/mL)” value was “N (Peel et al 2017) (Antifungal (MIC <64ug/mL))”.
